As usually defined, the IC50 is the concentration that inhibits the measured activity by half. By inhibition is commonly meant the relative decrease from the control value, in per cent.

The source made the active and inactive calls. The calls are words filed in the database; no cut-off is given here. Bounds are passed on as bounds.

The source of these data is ChEMBL document CHEMBL1127986, “Synthesis and Biological Evaluation of New Leukotriene Analogs” (Bioorg Med Chem Lett, 1994).

The target in assay [1] is T1, Polyunsaturated fatty acid 5-lipoxygenase (Homo sapiens, UniProt P09917).
T1 sequence (P09917 whole entry): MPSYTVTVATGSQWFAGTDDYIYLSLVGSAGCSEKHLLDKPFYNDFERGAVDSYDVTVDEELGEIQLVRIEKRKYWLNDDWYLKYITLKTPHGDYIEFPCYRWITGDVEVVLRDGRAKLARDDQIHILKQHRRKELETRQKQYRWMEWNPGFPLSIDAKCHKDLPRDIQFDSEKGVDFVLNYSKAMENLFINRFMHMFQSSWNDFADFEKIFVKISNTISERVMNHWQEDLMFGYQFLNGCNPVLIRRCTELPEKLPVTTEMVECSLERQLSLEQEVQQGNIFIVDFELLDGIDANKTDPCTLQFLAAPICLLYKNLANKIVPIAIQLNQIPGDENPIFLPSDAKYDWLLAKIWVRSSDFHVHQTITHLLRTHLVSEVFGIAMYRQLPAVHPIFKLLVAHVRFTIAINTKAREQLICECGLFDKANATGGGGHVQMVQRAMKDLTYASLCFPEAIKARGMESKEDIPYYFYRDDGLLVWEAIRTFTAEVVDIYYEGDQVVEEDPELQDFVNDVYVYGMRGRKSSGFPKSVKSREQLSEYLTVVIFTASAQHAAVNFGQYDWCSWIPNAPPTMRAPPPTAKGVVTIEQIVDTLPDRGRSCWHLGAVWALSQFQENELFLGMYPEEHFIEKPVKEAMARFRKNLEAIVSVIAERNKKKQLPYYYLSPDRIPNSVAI
Description: Inhibition of 5-lipoxygenase was evaluated in human polymorphonuclear leukocytes stimulated by calcium ionophore A-23187 for formation of 5-HETE; NA means Not active. The assay is classed as cell-based.

The target of assay [2] is T1, Polyunsaturated fatty acid 5-lipoxygenase. The experiment in a line: Inhibition of 5-lipoxygenase was evaluated in human polymorphonuclear leukocytes stimulated by calcium ionophore A-23187 for formation of LTB4; NA means Not active. It counts as cell-based.
Assay [3] has as its target T2, Arachidonate 12-lipoxygenase (Rattus norvegicus) (UniProt Q02759).
T2 sequence (whole entry): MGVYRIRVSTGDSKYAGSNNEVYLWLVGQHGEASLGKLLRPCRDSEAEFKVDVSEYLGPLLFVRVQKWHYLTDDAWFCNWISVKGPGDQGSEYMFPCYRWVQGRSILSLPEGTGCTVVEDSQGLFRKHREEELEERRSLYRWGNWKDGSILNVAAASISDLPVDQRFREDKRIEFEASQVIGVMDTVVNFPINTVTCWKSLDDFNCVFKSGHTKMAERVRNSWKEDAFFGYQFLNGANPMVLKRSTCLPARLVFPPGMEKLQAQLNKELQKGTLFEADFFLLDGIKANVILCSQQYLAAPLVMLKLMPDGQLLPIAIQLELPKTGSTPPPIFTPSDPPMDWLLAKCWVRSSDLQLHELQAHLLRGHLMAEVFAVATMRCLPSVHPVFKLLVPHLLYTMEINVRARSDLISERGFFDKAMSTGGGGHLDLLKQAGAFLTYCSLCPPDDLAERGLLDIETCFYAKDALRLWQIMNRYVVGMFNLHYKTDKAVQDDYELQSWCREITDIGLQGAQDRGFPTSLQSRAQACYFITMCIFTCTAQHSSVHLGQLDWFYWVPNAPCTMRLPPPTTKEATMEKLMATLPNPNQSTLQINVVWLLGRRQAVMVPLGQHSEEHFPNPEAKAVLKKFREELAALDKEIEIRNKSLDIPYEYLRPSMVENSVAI
Description: Inhibition of 12-lipoxygenase was evaluated in rat platelets stimulated by thrombin up to a concentration of 10 uM; NE means No effect.

Assay [4] deals with T1, Polyunsaturated fatty acid 5-lipoxygenase. The experiment in a line: Inhibition of 5-lipoxygenase was evaluated in human polymorphonuclear leukocytes stimulated by calcium ionophore A-23187 for formation of 5-HETE. It counts as cell-based.
Assay [5] has the same target. The experiment in a line: Inhibition of 5-lipoxygenase was evaluated in human polymorphonuclear leukocytes stimulated by calcium ionophore A-23187 for formation of LTB4. It counts as cell-based.
The target of assay [6] is Cyclooxygenase (Rattus norvegicus) (UniProt P35355+Q63921). Description: Inhibition of cyclooxygenase was evaluated in rat platelets stimulated by thrombin up to a concentration of 10 uM; NE means No effect.
Assay [7] has as its target T3, Polyunsaturated fatty acid 5-lipoxygenase (Homo sapiens) (UniProt P09917).
T3 sequence (whole entry): T1 sequence (P09917 whole entry)
Description: Inhibition of 5-lipoxygenase was evaluated in human polymorphonuclear leukocytes stimulated by calcium ionophore A-23187 for formation of 5-HETE at 10 uM. The assay is classed as cell-based.

The target of assay [8] is T3, Polyunsaturated fatty acid 5-lipoxygenase (Homo sapiens). Description: Inhibition of 5-lipoxygenase was evaluated in human polymorphonuclear leukocytes stimulated by calcium ionophore A-23187 for formation of LTB4 at 10 uM. It counts as cell-based.
Assay [9] shares this target. The experiment in a line: Inhibition of 5-lipoxygenase was evaluated in human polymorphonuclear leukocytes stimulated by calcium ionophore A-23187 for formation of 5-HETE at 10 uM; NA means Inactive. It counts as cell-based.
Assay [10] shares this target. Description: Inhibition of 5-lipoxygenase was evaluated in human polymorphonuclear leukocytes stimulated by calcium ionophore A-23187 for formation of LTB4 at 10 uM; NA means Inactive. It counts as cell-based.

As for `CCCCCCCC\C=C/C=C/C=C/C(O)CCC/C=N/O` (centres undefined), the IC50 entry in assay [1] and in [2] was “Not Active” in each case.

As for `CCCCC/C=C\C\C=C/C=C/C=C/C(O)CCC/C=N/O` (racemic), the result in assay [3] and in [6] was inactive. The IC50 in [4] stood at 5.4 µM; in assay [5] it was 4.4 µM.

In the case of `CCCCC/C=C\C\C=C/C=C/C=C/[C@H](O)CCC/C=N/O`, the outcome in assay [3] and in assay [6] was inactive. Moreover, the IC50 in assay [4] came out at 2.8 µM; in [5], 3.3 µM.

Turning to `CCCCC/C=C\C\C=C/C=C/C=C/C(O)CCCCC` (centres undefined), the inhibition in assay [7] and in [8] was 95% each time.

As for `CCCCC/C=C\C\C=C/C=C/C=C/C(O)CCC/C=N/OC` (centres undefined), the outcome in assay [3] and in assay [6] was inactive. Also, the inhibition in assay [7] and in assay [8] was 95% in each case.

Take `CCCCC/C=C\C\C=C/C=C/C=C/[C@@H](O)CCC/C=N/O`: the outcome in assay [3] and in assay [6] was inactive. The IC50 result in [1] and in assay [2] was “Not Active” in each case.

As to `CCCCC/C=C\C\C=C/C=C/C=C/C(CCC/C=N/O)OC` (centres undefined), the result in assay [3] and in [6] was inactive. Besides, the IC50 entry in assay [1] and in assay [2] was “Not Active” each time.

As for `CCCCC/C=C\C\C=C/C=C/C=C/C(O)CC/C=N\O` (centres undefined), the outcome in assay [3] and in assay [6] was inactive. Besides, the inhibition in [7] and in assay [8] was 95% throughout.

Turning to `CCCCC/C=C\Cc1ccc(/C=C/C(O)CCC/C=N\O)cc1` (centres undefined), the outcome in assay [3] and in [6] was inactive. In addition, the inhibition entry in assay [9] and in assay [10] was “inactive” each time.

Take `CCCCC/C=C\C/C=C\C=C\C(O)CCC/C=N/O` (centres undefined): the inhibition is less than 40% in [7] and 60% in assay [8].
